Measured values reported in PMC6315428, “Quantification of α-Thujone and Its Metabolites in Human Urine after Consumption of a Sage Infusion Using Stable Isotope Dilution Assays” (Toxins, 2018).

Tests used:
[1] = Human study: urinary excretion of α-thujone and hydroxythujones after consumption of a sage infusion (SIDA, SPME-GC-MS and LC-MS/MS); format: in vivo, humans; settings: for detection in urine of the volunteers: after consumption of 575.0 µg α-thujone, hydroxythujones after liberation from glucuronides/sulfates; for minimum degree of glucuronidation/sulfation: human urine, calculated from two samples with free hydroxythujones above LOQ; for Total excretion in human urine: 575 µg α-thujone as sage infusion, urine over 24 h; for time after which no additional excretion was observed: after ingestion of sage infusion, all but test person 2 for 7-OH; for maximum concentration in urine: volunteer with the highest dose of 14.3 µg/kg bw, after sage infusion
Experimental: The protocol of the study was approved by the Ethics Committee of the Faculty of Medicine of the Technische Universität München (1996/07). Written informed consent was obtained from participants before inclusion into the study. Seven healthy, non-smoking volunteers, six Caucasian, participated in the study (3 men and 4 women, mean (±standard deviation [SD]) age 29.7 (±9.21) years, and mean (±SD) body mass index 23.1 (±5.08) kg/m^2). For 24 h prior to the study, the volunteers avoided herbs and spices containing α-thujone for a wash out. A blank urine sample was collected as a control from each volunteer before consumption of the sage infusion. On an empty stomach, the volunteers drank the tea (575 µg α-thujone) within 10 min, and urine was collected at 1, 1.5, 2.5, 3.5 h, and in the time frames of 4.5–6, 6–8, 8–14, 14–24 h after consumption. A defined meal (cheese sandwich) was eaten after 2 h. The samples were stored at 4 °C until preparation for analysis.
The cooled samples were adjusted with HCl to pH 5 and divided into 2 mL aliquots. A solution containing the labeled hydroxythujones (220–430 ng) and β-glucuronidase (5000 units/mL sample; 1 unit liberates […] phenolphthalein from its glucuronide per hour at pH 5.0 at 37 °C) was added, and the mixture stirred at 37 °C for 15 h. Afterwards, the samples were centrifuged (16000 rpm, 4 °C, 15 min) and the supernatant was subjected to solid phase extraction (SPE).
The SPE tubes (ENVI-18, 100 mg, Supelco) were equilibrated with 2 × 1 mL methanol and 2 × 1 mL water. Thereafter, the clear supernatant was loaded on the columns and was slowly passed through without suction. The protein residue was reextracted with water/methanol (95:5, 1 mL), and also loaded on the SPE tubes. The tubes were washed with water/methanol (95:5, 2 × 1 mL) by suction, and then dried carefully. Analytes were slowly eluted with water/acetonitrile (50:50, 500 µL). The extracts were analyzed by LC-MS/MS.
Measurements on the LC-MS/MS were performed using a Shimadzu LC-30A Prominence system (Shimadzu, Kyoto, Japan) interfaced to an LCMS-8050 Triple Quadrupol mass spectrometer (Shimadzu, Kyoto, Japan). A total of 40 µL was injected onto a YMC Pro Pack C4 at 30 °C oven temperature and flow of 0.5 mL/min with water (solvent A) and ACN (solvent B). The gradient was started and held at 5% B for 2 min, raised linearly from 5% B to 30% B during the next 1 min, then raised linearly to 33% within the next 7 min, and to 100% B within the next 1 min. Thereafter, the mobile phase returned to 5% B within 2 min, and the system was equilibrated for 18 min before the next run. The atmospheric pressure chemical ionization (APCI) source was operated in the positive mode under the following conditions: nebulizing gas flow 3 L/min; interface temperature 350 °C; desolvation line temperature 200 °C; drying gas flow 5 L/min. For MS/MS of the hydroxythujones, the mass transitions (m/z precursor ion/ m/z product ion) 151/81 (collision energy = −17 V) and 151/123 (−14 V) for 2-OH, 151/109 (−13 V) and 151/91 (−23 V) for 4-OH, 151/105 (−18 V) and 151/81 (−17 V) for 7-OH, 157/129 (−14 V) and 157/87 (−15 V) for d6-2-OH, […] (−16 V) and 157/91 (−23 V) for d6-4-OH, and 157/129 (−14 V) and 157/99 (−16 V) for d6-7-OH were used.
To determine the hydroxythujone content in urine, calibration functions for 2-OH, 4-OH, and 7-OH were generated with the respective labeled compounds. Calibrators with unlabeled and labeled compounds were prepared in an aqueous solution, in seven different ratios for the unlabeled compounds ranging from 3.1–601.9 µg/mL, while maintaining the labelled compounds constant at concentrations of 450 µg/mL each. The samples were measured by LC-MS/MS. From the relation of area ratios to molar ratios, calibration curves were constructed. […]

[2] = design: method as in PMID 11368559; settings: mouse urine; cited from earlier work
[3] = design: method as in PMID 20425757; settings: cited from earlier work
[4] = test system: gamma-aminobutyric acid A (GABAA) receptor; design: method as in PMID 10725394; settings: leads to convulsions and excitations at higher concentrations in animal studies; cited from earlier work
[5] = recently deduced; cited from earlier work
[6] = test person 1, dose/bw 14.3 µg/kg, after glucuronide/sulfate deconjugation
[7] = test person 2, dose/bw 11.4 µg/kg, after glucuronide/sulfate deconjugation
[8] = test person 3, dose/bw 8.2 µg/kg, after glucuronide/sulfate deconjugation
[9] = test person 4, dose/bw 6.7 µg/kg, after glucuronide/sulfate deconjugation
[10] = test person 5, dose/bw 8.9 µg/kg, after glucuronide/sulfate deconjugation
[11] = test person 6, dose/bw 4.6 µg/kg, after glucuronide/sulfate deconjugation
[12] = test person 7, dose/bw 7.6 µg/kg, after glucuronide/sulfate deconjugation

detection in urine of the volunteers [1]	minimum degree of glucuronidation/sulfation [1]	Total excretion in human urine [1, 6]	Total excretion in human urine [1, 7]	Total excretion in human urine [1, 8]	Total excretion in human urine [1, 9]	Total excretion in human urine [1, 10]	Total excretion in human urine [1, 11]	Total excretion in human urine [1, 12]	time after which no additional excretion was observed ([1]; urine)	Structure (SMILES)	degree of glucuronidation [2]	other results
detectable	≥ 66%	13.9 µg	17.9 µg	14.6 µg	11.8 µg	16.5 µg	17.0 µg	26.3 µg	7 to 8 h	CC(C)[C@]12CC(=O)[C@@](C)(O)[C@H]1C2 [4-OH, 4-hydroxythujone]	61%	
detectable	≥ 55%	15.6 µg	20.9 µg	8.6 µg	4.0 µg	7.8 µg	6.9 µg	5.9 µg	7 to 8 h	C[C@H]1C(=O)C[C@]2(C(C)(C)O)C[C@H]12 [7-OH, 7-hydroxythujone]	2%	slower excretion until ([1]; urine, test person 2): 16 h

The remaining lines, values behind:

Structure (SMILES)	detection in urine of the volunteers [1]	minimum degree of glucuronidation/sulfation [1]	Total excretion in human urine [1, 6]	Total excretion in human urine [1, 7]	Total excretion in human urine [1, 8]	Total excretion in human urine [1, 9]	Total excretion in human urine [1, 10]	Total excretion in human urine [1, 11]	Total excretion in human urine [1, 12]	time after which no additional excretion was observed ([1]; urine)	degree of glucuronidation [2]	other results
CC(C)[C@@]12C[C@@H]1[C@@H](C)C(=O)[C@@H]2O [2-OH, 2-hydroxythujone]	not being detectable										85%	detection in urine of the volunteers ([1]; listed as 2-Hydroxythujone): not present
CC12CCC(CC1)C(C)(C)O2 [1,8-cineole]												dose recovered as the sum of 2-, 9-, 3- and 7-hydroxy-1,8-cineole [3]: 52.5%
CC(C)[C@]12CC(=O)[C@H](C)[C@H]1C2 [thujone]												effect on GABAA receptor [4]: inhibits
CC(C)[C@]12CC(=O)[C@H](C)[C@H]1C2 [α-thujone]	detectable											detection in urine of the volunteers ([1]; listed as α-Thujone): detectable in a low amount; time after which urine concentration fell under the LODs ([1]; most volunteers): 4.5 h; Total excretion in human urine ([1]; test person 1, dose/bw 14.3 µg/kg): 0.0451 µg; Total excretion in human urine ([1]; test person 2, dose/bw 11.4 µg/kg): 0.008 µg; Total excretion in human urine ([1]; test person 3, dose/bw 8.2 µg/kg): 0.0361 µg; Total excretion in human urine ([1]; test person 4, dose/bw 6.7 µg/kg): 0.0163 µg; Total excretion in human urine ([1]; test person 5, dose/bw 8.9 µg/kg): 0.0107 µg; Total excretion in human urine ([1]; test person 6, dose/bw 4.6 µg/kg): 0.025 µg; Total excretion in human urine ([1]; test person 7, dose/bw 7.6 µg/kg): 0.0351 µg; time within which excreted ([1]; urine, almost all volunteers): ≤ 8 h; maximum concentration in urine [1]: 94.3 ng/L; maximum concentration in urine ([1]; listed as α-Thujone): 94 ng/L; acceptable daily intake [5]: 110 µg/kg bw/d
